The values that follow come from ChEMBL document CHEMBL5244269, “Improving metabolic stability and removing aldehyde oxidase liability in a 5-azaquinazoline series of IRAK4 inhibitors” (Bioorg Med Chem, 2020).

Converted amounts (≈) assume the structure as drawn. Some results are limits rather than exact numbers.

The subject of data set [1] is OCI-Ly10. Kind of data set: Growth inhibition of human OCILY10 cells at 10 uM incubated for 3 days in presence of 0.17 uM acalabrutinib relative to control. Particulars: OCI-Ly10, 72 h, time 3 day, read-out: GI. The format is functional.
The test system of data set [2] is OCI-Ly10. The experiment in a line: Growth inhibition of human OCILY10 cells at 0.33 uM incubated for 3 days in presence of 0.033 uM acalabrutinib relative to control. It is filed as functional. Particulars: OCI-Ly10, 72 h, time 3 day, read-out: GI.
Data set [3] concerns OCI-Ly10. Kind of data set: Growth inhibition of human OCILY10 cells at 0.33 uM incubated for 3 days (Rvb= -3%). It is filed as functional. As to conditions: OCI-Ly10, 72 h, time 3 day, read-out: GI.
Data set [4] concerns OCI-Ly10. The experiment in a line: Growth inhibition of human OCILY10 cells at 0.17 uM incubated for 3 days (Rvb= -3%). The format is functional. As to conditions: OCI-Ly10, 72 h, time 3 day, read-out: GI.
For data set [5], the system named is SUD4. Kind of data set: Growth inhibition of human SU-DHL-4 cells at 10 uM incubated for 3 days (reference value: -1%). It is filed as functional. Particulars: SU-DHL-4, 72 h, time 3 day, read-out: GI.
For data set [6], the system named is SUD4. The experiment in a line: Growth inhibition of human SU-DHL-4 cells at 0.33 uM incubated for 3 days (reference value: -1%). The format is functional. As to conditions: SU-DHL-4, 72 h, time 3 day, read-out: GI.
Data set [7] can be described thus: Metabolic stability in human liver microsomes assessed as intrinsic clearance. The format is ADME, Microsome. As to conditions: read-out: CLH.
Data set [8] relates to OCI-Ly10. Kind of data set: Growth inhibition of human OCILY10 cells at 3.3 uM incubated for 3 days in presence of 0.033 uM acalabrutinib relative to control. It is filed as functional. Particulars: OCI-Ly10, 72 h, time 3 day, read-out: GI.
Data set [9] concerns OCI-Ly10. The experiment in a line: Growth inhibition of human OCILY10 cells at 0.33 uM incubated for 3 days in presence of 0.003 uM acalabrutinib relative to control. The format is functional. Particulars: OCI-Ly10, 72 h, time 3 day, read-out: GI.
Data set [10] deals with NT-3 growth factor receptor (Homo sapiens, UniProt Q16288). Kind of data set: Inhibition of TRKC (unknown origin) in presence of 50 uM ATP.
Chain of NT-3 growth factor receptor (Q16288 whole entry): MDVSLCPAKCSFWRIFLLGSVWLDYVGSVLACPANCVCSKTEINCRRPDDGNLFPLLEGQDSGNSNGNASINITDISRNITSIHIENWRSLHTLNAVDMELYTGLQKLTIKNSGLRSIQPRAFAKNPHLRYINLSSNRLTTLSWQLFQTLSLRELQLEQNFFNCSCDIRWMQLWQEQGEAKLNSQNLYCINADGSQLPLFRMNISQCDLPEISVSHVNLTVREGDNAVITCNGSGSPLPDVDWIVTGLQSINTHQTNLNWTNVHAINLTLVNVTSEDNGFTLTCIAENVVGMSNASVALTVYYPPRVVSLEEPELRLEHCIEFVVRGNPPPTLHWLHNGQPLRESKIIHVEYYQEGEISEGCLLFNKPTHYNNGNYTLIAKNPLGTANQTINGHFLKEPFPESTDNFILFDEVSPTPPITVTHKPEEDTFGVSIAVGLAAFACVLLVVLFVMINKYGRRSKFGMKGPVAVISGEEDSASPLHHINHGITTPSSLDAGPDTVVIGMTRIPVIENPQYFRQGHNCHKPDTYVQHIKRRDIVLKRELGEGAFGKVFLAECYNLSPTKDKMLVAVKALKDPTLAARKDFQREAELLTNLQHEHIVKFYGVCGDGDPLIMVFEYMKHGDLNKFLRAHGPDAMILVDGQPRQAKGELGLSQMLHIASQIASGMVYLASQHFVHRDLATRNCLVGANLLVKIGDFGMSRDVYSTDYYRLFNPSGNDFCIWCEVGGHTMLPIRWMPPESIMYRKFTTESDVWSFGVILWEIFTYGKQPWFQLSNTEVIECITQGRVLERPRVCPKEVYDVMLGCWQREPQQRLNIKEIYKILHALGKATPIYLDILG
Data set [11] deals with SUD4. The experiment in a line: Growth inhibition of human SU-DHL-4 cells at 0.33 uM incubated for 3 days in presence of 0.17 uM acalabrutinib relative to control. It is filed as functional. As to conditions: SU-DHL-4, 72 h, time 3 day, read-out: GI.
Data set [12] has as its system OCI-Ly10. Kind of data set: Growth inhibition of human OCILY10 cells at 0.17 uM incubated for 3 days in presence of 0.17 uM acalabrutinib relative to control. As to conditions: OCI-Ly10, 72 h, time 3 day, read-out: GI. It is filed as functional.
Data set [13] concerns OCI-Ly10. Kind of data set: Growth inhibition of human OCILY10 cells at 10 uM incubated for 3 days in presence of 0.003 uM acalabrutinib relative to control. It is filed as functional. Particulars: OCI-Ly10, 72 h, time 3 day, read-out: GI.
The subject of data set [14] is SUD4. The experiment in a line: Growth inhibition of human SU-DHL-4 cells at 10 uM incubated for 3 days in presence of 0.033 uM acalabrutinib relative to control. It is filed as functional. Particulars: SU-DHL-4, 72 h, time 3 day, read-out: GI.
Data set [15] in a line: Apparent permeability across apical to basolateral side in human Caco-2 cells measured for 360 mins by liquid scintillation counting based analysis. The format is ADME, cell-based.
The target in data set [16] is T1, Interleukin-1 receptor-associated kinase 4 (Homo sapiens, UniProt Q9NWZ3).
T1 sequence (Q9NWZ3 whole entry): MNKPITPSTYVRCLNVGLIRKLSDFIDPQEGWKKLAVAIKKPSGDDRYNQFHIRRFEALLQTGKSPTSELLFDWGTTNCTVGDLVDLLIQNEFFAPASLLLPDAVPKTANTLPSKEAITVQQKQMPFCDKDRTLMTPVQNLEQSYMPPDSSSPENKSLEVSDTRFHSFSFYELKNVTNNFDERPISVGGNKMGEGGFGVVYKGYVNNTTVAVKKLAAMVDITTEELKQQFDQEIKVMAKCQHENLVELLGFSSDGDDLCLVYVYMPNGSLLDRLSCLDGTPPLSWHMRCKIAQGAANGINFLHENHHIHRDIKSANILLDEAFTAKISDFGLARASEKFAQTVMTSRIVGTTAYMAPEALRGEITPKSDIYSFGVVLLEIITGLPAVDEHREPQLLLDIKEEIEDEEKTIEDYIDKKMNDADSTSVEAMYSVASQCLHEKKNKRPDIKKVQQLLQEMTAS
The experiment in a line: Inhibition of IRAK4 (unknown origin) in presence of ATP by enzymatic assay.

Data set [17] in a line: Aqueous solubility in pH 7.4 phosphate buffer. The format is physicochemical.
Data set [18] has as its target T2, Phosphatidylinositol 4,5-bisphosphate 3-kinase catalytic subunit delta isoform (Homo sapiens, UniProt O00329).
T2 sequence (O00329 whole entry): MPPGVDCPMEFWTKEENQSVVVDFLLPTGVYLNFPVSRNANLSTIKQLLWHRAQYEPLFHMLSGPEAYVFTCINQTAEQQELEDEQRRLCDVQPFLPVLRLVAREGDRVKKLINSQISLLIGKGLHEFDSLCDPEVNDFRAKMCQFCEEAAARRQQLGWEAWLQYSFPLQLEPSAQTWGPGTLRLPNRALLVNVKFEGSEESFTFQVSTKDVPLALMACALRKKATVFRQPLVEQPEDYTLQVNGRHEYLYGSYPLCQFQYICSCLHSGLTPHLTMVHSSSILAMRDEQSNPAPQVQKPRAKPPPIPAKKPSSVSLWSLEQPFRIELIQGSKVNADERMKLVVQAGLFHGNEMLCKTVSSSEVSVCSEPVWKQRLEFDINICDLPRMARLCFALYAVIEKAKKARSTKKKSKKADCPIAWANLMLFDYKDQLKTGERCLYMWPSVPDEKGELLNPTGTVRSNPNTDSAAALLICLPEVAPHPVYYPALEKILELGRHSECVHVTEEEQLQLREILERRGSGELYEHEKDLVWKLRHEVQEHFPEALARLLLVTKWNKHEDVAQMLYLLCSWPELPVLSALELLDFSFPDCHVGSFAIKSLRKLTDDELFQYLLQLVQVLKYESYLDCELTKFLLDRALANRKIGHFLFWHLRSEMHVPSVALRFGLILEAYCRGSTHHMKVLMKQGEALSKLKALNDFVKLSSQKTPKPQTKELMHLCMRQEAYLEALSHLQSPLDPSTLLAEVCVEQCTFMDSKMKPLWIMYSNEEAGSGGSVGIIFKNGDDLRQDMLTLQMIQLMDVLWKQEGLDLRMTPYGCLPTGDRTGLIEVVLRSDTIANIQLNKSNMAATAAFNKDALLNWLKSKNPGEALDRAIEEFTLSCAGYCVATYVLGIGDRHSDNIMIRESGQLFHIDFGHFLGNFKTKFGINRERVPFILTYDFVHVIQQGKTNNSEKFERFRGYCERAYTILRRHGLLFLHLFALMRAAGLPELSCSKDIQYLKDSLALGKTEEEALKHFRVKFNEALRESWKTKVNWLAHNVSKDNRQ
Kind of data set: Inhibition of PI3Kdelta (unknown origin) in presence of […] uM ATP.

Data set [19] relates to SUD4. Kind of data set: Growth inhibition of human SU-DHL-4 cells at 10 uM incubated for 3 days in presence of 0.33 uM acalabrutinib relative to control. It is filed as functional. As to conditions: SU-DHL-4, 72 h, time 3 day, read-out: GI.

`Cc1ncc(-c2nc3c(OC4(C)CC4)nc(Nc4cnn(C5CCN(C)CC5)c4)nc3cc2F)cn1`: the inhibition of growth at 10 µM in the data set with OCI-Ly10 [1] is 199%; with SUD4 [5], 0%; in the data set on OCI-Ly10 [13], 195%; in the data set with SUD4 [14], -2%; in the data set with SUD4 [19] it was 0%. Also, the inhibition of growth at 0.33 µM in the data set on OCI-Ly10 [2] was 155%; in the data set on OCI-Ly10 [3] it was 8%; in the data set with SUD4 [6] it was -1%; with OCI-Ly10 [9] it was 33%; in the data set with SUD4 [11], -2%. The inhibition of growth at 0.17 µM was 1% in the data set on OCI-Ly10 [4] and 147% in the data set with OCI-Ly10 [12]. Besides, the microsomal CLint in [7] was determined as 58 µL/min/mg. Further, in the data set on OCI-Ly10 [8], the inhibition of growth at 3.3 µM stood at 194%. Moreover, the values for the IC50 in data set [10], in data set [16] and in data set [18] were 270 nM, 3 nM and 53 nM, respectively. Besides, the Papp A→B at 6 h in data set [15] worked out at 31 ×10⁻⁶ cm/s. The same compound came in with a solubility in data set [17] of 800 µM (≈ 392 µg/mL).
As for `CC[C@@H]1[C@H](F)C(=O)N[C@@H]1COc1nccc2cc(C(N)=O)c(OC)cc12` [ZIMLOVISERTIB], the inhibition of growth at 10 µM came out at 178% in the data set on OCI-Ly10 [1]; 2% in the data set with SUD4 [5]; 80% in the data set on OCI-Ly10 [13]; 2% in the data set with SUD4 [14]; 7% with SUD4 [19]. Moreover, the inhibition of growth at 0.33 µM with OCI-Ly10 [2] is 142%; in the data set on SUD4 [6], 1%; in the data set with OCI-Ly10 [9], 21%; with SUD4 [11] it was 2%. The inhibition of growth at 3.3 µM with OCI-Ly10 [8] is 139%. The inhibition of growth at 0.17 µM with OCI-Ly10 [12] was determined as 171%.
Turning to `Cc1ncc(-c2nc3c(NC(C)C)nc(Nc4cnn(C5CC6(C5)CN(C)C6)c4)nc3cc2F)cn1`, the inhibition of growth at 10 µM with OCI-Ly10 [1] came out at 199%; with OCI-Ly10 [13], 196%; with SUD4 [14] it was 6%; with SUD4 [19] it was 10%. The inhibition of growth at 0.33 µM came to 177% with OCI-Ly10 [2], 35% in the data set on OCI-Ly10 [3], 51% with OCI-Ly10 [9] and 4% in the data set with SUD4 [11]. In addition, the inhibition of growth at 0.17 µM is 5% in the data set on OCI-Ly10 [4] and 172% with OCI-Ly10 [12]. For the same compound, the microsomal CLint in data set [7] is less than 3 µL/min/mg. Also, the inhibition of growth at 3.3 µM with OCI-Ly10 [8] was 196%. In addition, the IC50 was 570 nM in [10], 2 nM in data set [16] and 230 nM in data set [18]. Moreover, in data set [15], the Papp A→B at 6 h was 7.7 ×10⁻⁶ cm/s. Also, in data set [17], the solubility was more than 1000 µM.
